Test results published in ChEMBL document CHEMBL4382266, “Melonoside B and Melonosins A and B, Lipids Containing Multifunctionalized ω-Hydroxy Fatty Acid Amides from the Far Eastern Marine Sponge Melonanchora kobjakovae” (J Nat Prod, 2018).
The source made the active and inactive calls. The rule behind the calls is not given here.

Tests used:
Assay type in all cases: cell-based
[1] = target: Transcription factor Jun (Homo sapiens) (UniProt P05412); assay: Inhibition of AP-1 (unknown origin) expressed in mouse JB6 Cl41 cells after 24 hrs by luciferase reporter gene assay
Chain of Transcription factor Jun (Homo sapiens) (P05412 whole entry): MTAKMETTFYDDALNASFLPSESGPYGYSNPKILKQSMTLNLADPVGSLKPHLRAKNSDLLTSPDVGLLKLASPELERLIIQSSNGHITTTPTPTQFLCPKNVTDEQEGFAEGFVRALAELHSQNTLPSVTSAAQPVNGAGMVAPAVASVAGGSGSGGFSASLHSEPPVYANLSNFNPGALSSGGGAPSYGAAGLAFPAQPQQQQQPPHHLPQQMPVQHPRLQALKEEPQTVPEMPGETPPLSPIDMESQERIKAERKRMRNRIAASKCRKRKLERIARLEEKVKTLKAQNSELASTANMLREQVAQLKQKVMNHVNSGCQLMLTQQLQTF

Homo sapiens [2] = organism: Homo sapiens; assay: (§1) Inhibition of NFkB (unknown origin) expressed in mouse JB6 Cl41 cells after 24 hrs by luciferase reporter gene assay
[3] = target: Cellular tumor antigen p53 (Homo sapiens) (UniProt P04637); assay: Inhibition of p53 (unknown origin) expressed in mouse JB6 Cl41 cells after 24 hrs by luciferase reporter gene assay
Chain of Cellular tumor antigen p53 (Homo sapiens) (P04637 whole entry, looked up): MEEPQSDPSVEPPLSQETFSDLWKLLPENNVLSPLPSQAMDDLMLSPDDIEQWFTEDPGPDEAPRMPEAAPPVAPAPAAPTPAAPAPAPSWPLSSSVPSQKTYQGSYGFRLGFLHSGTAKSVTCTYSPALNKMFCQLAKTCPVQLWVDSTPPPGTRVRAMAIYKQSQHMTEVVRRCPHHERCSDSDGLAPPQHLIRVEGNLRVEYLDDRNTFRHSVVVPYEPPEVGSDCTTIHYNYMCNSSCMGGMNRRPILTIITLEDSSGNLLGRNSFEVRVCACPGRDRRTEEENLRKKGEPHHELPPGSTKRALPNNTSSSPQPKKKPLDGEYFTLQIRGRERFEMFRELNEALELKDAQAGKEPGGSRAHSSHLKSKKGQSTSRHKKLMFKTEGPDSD

[4] = Cytotoxicity against mouse JB6 Cl41 cells after 24 hrs assessed as reduction in cell viability at 6 to 12 uM by MTS assay
[5] = as §1; conditions: Homo sapiens, JB6 Cl41, 24 h
[6] = target: Transcription factor Jun (Homo sapiens) (UniProt P05412); assay: Inhibition of AP-1 (unknown origin) expressed in mouse JB6 Cl41 cells at 25 uM after 24 hrs by luciferase reporter gene assay relative to control
Homo sapiens [7] = organism: Homo sapiens; assay: Inhibition of NFkB (unknown origin) expressed in mouse JB6 Cl41 cells at 25 uM after 24 hrs by luciferase reporter gene assay relative to control
[8] = Cytotoxicity against mouse JB6 Cl41 cells after 24 hrs assessed as reduction in cell viability at 25 to 37 uM by MTS assay

SMILES | inhibition [1] | inhibition (Homo sapiens [2]) | inhibition [3] | Activity [4] | IC50 [5] | inhibition [6] | inhibition (Homo sapiens [7]) | Activity [8]
CO[C@@H](CC/C=C\CCCCC(=O)CCCCC(=O)CCCCCCCCCCO[C@@H]1O[C@H](C(=O)O)[C@@H](O)[C@H](O)[C@H]1O)C(=O)NCCc1ccc(O)cc1 | inactive | inactive | inactive | – | – | – | – | –
CO[C@@H](CC/C=C\CCCCC(=O)CCCCCCC(=O)CC/C=C\CCCCCCO[C@@H]1O[C@H](C(=O)O)[C@@H](O)[C@H](O)[C@H]1O)C(=O)NCCc1ccc(O)cc1 | inactive | inactive | inactive | – | – | – | – | –
CO[C@@H](CC/C=C\CCCCC(=O)CCCCCCC(=O)CC/C=C\CCCCCCO)C(=O)NCCc1ccc(O)cc1 | – | – | inactive | Non-Toxic | 7.2 µM | – | – | –
CO[C@@H](CC/C=C\CCCCC(=O)CCCCC(=O)CCCCCCCCCCO)C(=O)NCCc1ccc(O)cc1 | – | – | inactive | – | – | 87% | 67% | Non-Toxic
